Experimental data from ChEMBL document CHEMBL5724914, “Linking interpersonal differences in gut microbiota composition and drug biotransformation activity” (2024).

Tests used:
[1] = (§1) The drug is tested on WLS-090 corresponding to human gut metagenome with ENA study accession number: PRJEB37062 and ENA sample accession number: ERS12561753 for biotransformation under anaerobic condition. The drug concentrations were measured over 9 timepoints collected between 0 and 24 hours of incubation by liquid-chromatography-coupled mass spectrometry (LC–MS); details: 2 µM
[2] = human gut metagenome, 24 h, 2 µM
[3] = as §1, with “WLS-086” for “WLS-090”, “ERS12561752” for “ERS12561753”; details: 2 µM
[4] = as §1, with “Z-009” for “WLS-090”, “pig” for “human”, “ERS12561809” for “ERS12561753”; details: 2 µM
[5] = human gut metagenome, 24 h, 2 µM; remark: listed apart in the source
[6] = as §1, with “Z-029” for “WLS-090”, “rat” for “human”, “ERS12561828” for “ERS12561753”; details: 2 µM
[7] = as §1, with “Z-026” for “WLS-090”, “to” for “to human gut”, “ERS12561825” for “ERS12561753”; details: 2 µM
[8] = human gut metagenome, 24 h, 2 µM; remark: listed apart in the source
[9] = as §1, with “WLS-370” for “WLS-090”, “ERS12561793” for “ERS12561753”; details: 2 µM
[10] = as §1, with “Z-022” for “WLS-090”, “mouse” for “human”, “ERS12561821” for “ERS12561753”; details: 2 µM
[11] = human gut metagenome, 24 h, 2 µM; remark: listed apart in the source
[12] = human gut metagenome, 24 h, 2 µM; remark: listed apart in the source
[13] = as §1, with “Z-001” for “WLS-090”, “mouse” for “human”, “ERS12561801” for “ERS12561753”; details: 2 µM
[14] = human gut metagenome, 24 h, 2 µM; remark: listed apart in the source
[15] = as §1, with “Z-024” for “WLS-090”, “pig” for “human”, “ERS12561823” for “ERS12561753”; details: 2 µM
[16] = human gut metagenome, 24 h, 2 µM; remark: listed apart in the source
[17] = human gut metagenome, 24 h, 2 µM; remark: listed apart in the source
[18] = as §1, with “Z-004” for “WLS-090”, “to” for “to human gut”, “ERS12561804” for “ERS12561753”; details: 2 µM
[19] = human gut metagenome, 24 h, 2 µM; remark: listed apart in the source
[20] = as §1, with “WLS-027” for “WLS-090”, “ERS12561744” for “ERS12561753”; details: 2 µM
Also: call rule not given here.

Bacterial Biotransformation [1] | Bacterial Biotransformation [2] | Bacterial Biotransformation [3] | Bacterial Biotransformation [4] | Bacterial Biotransformation [5] | Bacterial Biotransformation [6] | Bacterial Biotransformation [7] | Bacterial Biotransformation [8] | Bacterial Biotransformation [9] | Bacterial Biotransformation [10] | Bacterial Biotransformation [11] | Bacterial Biotransformation [12] | Bacterial Biotransformation [13] | Bacterial Biotransformation [14] | Bacterial Biotransformation [15] | Bacterial Biotransformation [16] | Bacterial Biotransformation [17] | Bacterial Biotransformation [18] | Bacterial Biotransformation [19] | Bacterial Biotransformation [20] | SMILES
Compound metabolized | Compound metabolized | Compound metabolized | Compound metabolized | Compound metabolized | Compound NOT metabolized | Compound metabolized | Compound NOT metabolized | Compound metabolized | Compound NOT metabolized | Compound metabolized | Compound metabolized | Compound NOT metabolized | Compound metabolized | Compound NOT metabolized | Compound metabolized | Compound metabolized | Compound NOT metabolized | Compound NOT metabolized | Compound metabolized | CC(C)c1nc(CN(C)C(=O)N[C@H](C(=O)N[C@@H](Cc2ccccc2)C[C@H](O)[C@H](Cc2ccccc2)NC(=O)OCc2cncs2)C(C)C)cs1 [RITONAVIR]
Compound metabolized | Compound NOT metabolized | Compound NOT metabolized | Compound NOT metabolized | Compound NOT metabolized | Compound NOT metabolized | Compound NOT metabolized | Compound NOT metabolized | Compound NOT metabolized | Compound NOT metabolized | Compound NOT metabolized | Compound NOT metabolized | Compound NOT metabolized | Compound NOT metabolized | Compound NOT metabolized | Compound NOT metabolized | Compound NOT metabolized | Compound NOT metabolized | Compound NOT metabolized | Compound NOT metabolized | CC(C)NCC(O)c1ccc(NS(C)(=O)=O)cc1 (stereo not given) [SOTALOL]
Compound metabolized | Compound metabolized | Compound metabolized | Compound metabolized | Compound metabolized | Compound NOT metabolized | Compound NOT metabolized | Compound NOT metabolized | Compound NOT metabolized | Compound NOT metabolized | Compound metabolized | Compound NOT metabolized | Compound metabolized | Compound NOT metabolized | Compound NOT metabolized | Compound metabolized | Compound metabolized | Compound metabolized | Compound NOT metabolized | Compound metabolized | CCN1CCCC1CNC(=O)c1cc(S(N)(=O)=O)ccc1OC (stereo not given) [SULPIRIDE]
Compound metabolized | Compound NOT metabolized | Compound metabolized | Compound NOT metabolized | Compound NOT metabolized | Compound NOT metabolized | Compound NOT metabolized | Compound NOT metabolized | Compound NOT metabolized | Compound NOT metabolized | Compound NOT metabolized | Compound NOT metabolized | Compound metabolized | Compound NOT metabolized | Compound NOT metabolized | Compound metabolized | Compound metabolized | Compound NOT metabolized | Compound NOT metabolized | Compound NOT metabolized | CNS(=O)(=O)Cc1ccc2[nH]cc(CCN(C)C)c2c1.O=C(O)CCC(=O)O [SUMATRIPTAN SUCCINATE]

Continued, compound first:

SMILES | Bacterial Biotransformation [1] | Bacterial Biotransformation [2] | Bacterial Biotransformation [3] | Bacterial Biotransformation [4] | Bacterial Biotransformation [5] | Bacterial Biotransformation [6] | Bacterial Biotransformation [7] | Bacterial Biotransformation [8] | Bacterial Biotransformation [9] | Bacterial Biotransformation [10] | Bacterial Biotransformation [11] | Bacterial Biotransformation [12] | Bacterial Biotransformation [13] | Bacterial Biotransformation [14] | Bacterial Biotransformation [15] | Bacterial Biotransformation [16] | Bacterial Biotransformation [17] | Bacterial Biotransformation [18] | Bacterial Biotransformation [19] | Bacterial Biotransformation [20]
CCC(=O)NCC[C@@H]1CCc2ccc3c(c21)CCO3 [RAMELTEON] | Compound metabolized | Compound metabolized | Compound metabolized | Compound metabolized | Compound metabolized | Compound NOT metabolized | Compound NOT metabolized | Compound metabolized | Compound metabolized | Compound metabolized | Compound metabolized | Compound NOT metabolized | Compound NOT metabolized | Compound NOT metabolized | Compound metabolized | Compound metabolized | Compound metabolized | Compound metabolized | Compound metabolized | Compound metabolized
CNC(=C[N+](=O)[O-])NCCSCc1ccc(CN(C)C)o1 [RANITIDINE] | Compound NOT metabolized | Compound NOT metabolized | Compound NOT metabolized | Compound metabolized | Compound metabolized | Compound metabolized | Compound metabolized | Compound NOT metabolized | Compound NOT metabolized | Compound metabolized | Compound metabolized | Compound metabolized | Compound metabolized | Compound NOT metabolized | Compound NOT metabolized | Compound NOT metabolized | Compound metabolized | Compound metabolized | Compound metabolized | Compound NOT metabolized
Nc1nc2ccc(OC(F)(F)F)cc2s1 [RILUZOLE] | Compound metabolized | Compound metabolized | Compound metabolized | Compound metabolized | Compound metabolized | Compound metabolized | Compound metabolized | Compound NOT metabolized | Compound metabolized | Compound metabolized | Compound metabolized | Compound metabolized | Compound metabolized | Compound metabolized | Compound metabolized | Compound metabolized | Compound metabolized | Compound metabolized | Compound metabolized | Compound metabolized
Nc1c2c(nc3ccccc13)CCCC2 [TACRINE] | Compound metabolized | Compound metabolized | Compound metabolized | Compound NOT metabolized | Compound NOT metabolized | Compound NOT metabolized | Compound NOT metabolized | Compound NOT metabolized | Compound NOT metabolized | Compound NOT metabolized | Compound NOT metabolized | Compound NOT metabolized | Compound NOT metabolized | Compound NOT metabolized | Compound NOT metabolized | Compound metabolized | Compound metabolized | Compound NOT metabolized | Compound NOT metabolized | Compound NOT metabolized
